Publication PMC5814754, “Quantitative, Wide-Spectrum Kinase Profiling in Live Cells for Assessing the Effect of Cellular ATP on Target Engagement” (Cell Chemical Biology, 2018)
Read-outs that look alike come from different tables or passages of the source.

Experiments:
Test in all cases: NanoBRET single-dose fractional occupancy profiling of kinase/Nluc library in live HEK293 cells (Table S1)
Type in all cases: binding
Parameters in all cases: receptor occupancy: dose or concentration left out as unconfirmed; Occupancy, % Replicate 1 / Occupancy, % Replicate 2: unit of the concentration uncertain
178 full-length kinases [1] = target: 178 full-length kinases (Homo sapiens, UniProt Q5S007); conditions: LRRK2, Nluc C
178 full-length kinases [2] = target: 178 full-length kinases (Homo sapiens, UniProt P50750); conditions: CDK9, Nluc N, probe 1 at 0.5 (unit uncertain)
178 full-length kinases [3] = target: 178 full-length kinases (Homo sapiens, UniProt P78368); conditions: CSNK1G2, Nluc N, probe 5 at 1 (unit uncertain)
178 full-length kinases [4] = target: 178 full-length kinases (Homo sapiens, UniProt Q13882); conditions: PTK6, Nluc C, probe 6 at 0.5 (unit uncertain)
178 full-length kinases [5] = target: 178 full-length kinases (Homo sapiens, UniProt Q15349); conditions: RPS6KA2 (NP_001305865), Nluc orientation N, probe 5 at 0.5 (unit uncertain)
Chain of 178 full-length kinases (Homo sapiens, UniProt Q15349) (Q15349 whole entry): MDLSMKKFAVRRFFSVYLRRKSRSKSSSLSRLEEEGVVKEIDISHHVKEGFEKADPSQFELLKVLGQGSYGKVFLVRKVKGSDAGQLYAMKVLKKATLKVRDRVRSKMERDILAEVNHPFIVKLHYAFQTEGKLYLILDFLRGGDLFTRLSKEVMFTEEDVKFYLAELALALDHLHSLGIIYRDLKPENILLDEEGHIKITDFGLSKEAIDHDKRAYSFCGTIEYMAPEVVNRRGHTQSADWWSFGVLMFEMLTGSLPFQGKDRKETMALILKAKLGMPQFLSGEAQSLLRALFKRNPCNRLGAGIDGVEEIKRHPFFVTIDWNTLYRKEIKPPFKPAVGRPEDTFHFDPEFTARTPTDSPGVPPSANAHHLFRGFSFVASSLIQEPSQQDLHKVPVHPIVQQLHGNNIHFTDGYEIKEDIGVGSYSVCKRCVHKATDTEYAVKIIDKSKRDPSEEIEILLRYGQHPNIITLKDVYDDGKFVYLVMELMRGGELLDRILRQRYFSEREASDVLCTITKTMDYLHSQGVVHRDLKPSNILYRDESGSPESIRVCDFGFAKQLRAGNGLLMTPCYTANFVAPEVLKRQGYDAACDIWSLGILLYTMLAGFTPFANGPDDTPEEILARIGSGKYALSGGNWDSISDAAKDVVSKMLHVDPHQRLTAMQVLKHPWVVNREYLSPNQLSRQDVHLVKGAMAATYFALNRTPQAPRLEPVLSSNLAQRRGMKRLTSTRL

178 full-length kinases [6] = target: 178 full-length kinases (Homo sapiens, UniProt Q96PY6); conditions: NEK1, Nluc N, probe 5 at 1 (unit uncertain)
178 full-length kinases [7] = target: 178 full-length kinases (Homo sapiens, UniProt O94768); conditions: STK17B (NP_004217), Nluc orientation C, probe 1 at 1 (unit uncertain)
178 full-length kinases [8] = target: 178 full-length kinases (Homo sapiens, UniProt P51817); conditions: PRKX, Nluc C, probe 5 at 1 (unit uncertain)
Chain of 178 full-length kinases (Homo sapiens, UniProt P51817) (P51817 whole entry): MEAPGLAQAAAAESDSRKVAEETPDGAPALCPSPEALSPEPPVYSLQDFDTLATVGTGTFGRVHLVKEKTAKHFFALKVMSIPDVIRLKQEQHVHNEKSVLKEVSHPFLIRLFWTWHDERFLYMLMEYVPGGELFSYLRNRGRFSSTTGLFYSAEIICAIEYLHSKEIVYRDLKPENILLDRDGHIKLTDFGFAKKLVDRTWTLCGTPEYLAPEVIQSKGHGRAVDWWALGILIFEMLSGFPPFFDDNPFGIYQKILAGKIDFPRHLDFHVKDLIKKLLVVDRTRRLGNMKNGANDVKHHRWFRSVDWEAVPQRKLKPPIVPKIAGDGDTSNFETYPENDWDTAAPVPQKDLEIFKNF

178 full-length kinases [9] = target: 178 full-length kinases (Homo sapiens, UniProt Q02779); conditions: MAP3K10, Nluc N, probe 5 at 1 (unit uncertain)
Chain of 178 full-length kinases (Homo sapiens, UniProt Q02779) (Q02779 whole entry): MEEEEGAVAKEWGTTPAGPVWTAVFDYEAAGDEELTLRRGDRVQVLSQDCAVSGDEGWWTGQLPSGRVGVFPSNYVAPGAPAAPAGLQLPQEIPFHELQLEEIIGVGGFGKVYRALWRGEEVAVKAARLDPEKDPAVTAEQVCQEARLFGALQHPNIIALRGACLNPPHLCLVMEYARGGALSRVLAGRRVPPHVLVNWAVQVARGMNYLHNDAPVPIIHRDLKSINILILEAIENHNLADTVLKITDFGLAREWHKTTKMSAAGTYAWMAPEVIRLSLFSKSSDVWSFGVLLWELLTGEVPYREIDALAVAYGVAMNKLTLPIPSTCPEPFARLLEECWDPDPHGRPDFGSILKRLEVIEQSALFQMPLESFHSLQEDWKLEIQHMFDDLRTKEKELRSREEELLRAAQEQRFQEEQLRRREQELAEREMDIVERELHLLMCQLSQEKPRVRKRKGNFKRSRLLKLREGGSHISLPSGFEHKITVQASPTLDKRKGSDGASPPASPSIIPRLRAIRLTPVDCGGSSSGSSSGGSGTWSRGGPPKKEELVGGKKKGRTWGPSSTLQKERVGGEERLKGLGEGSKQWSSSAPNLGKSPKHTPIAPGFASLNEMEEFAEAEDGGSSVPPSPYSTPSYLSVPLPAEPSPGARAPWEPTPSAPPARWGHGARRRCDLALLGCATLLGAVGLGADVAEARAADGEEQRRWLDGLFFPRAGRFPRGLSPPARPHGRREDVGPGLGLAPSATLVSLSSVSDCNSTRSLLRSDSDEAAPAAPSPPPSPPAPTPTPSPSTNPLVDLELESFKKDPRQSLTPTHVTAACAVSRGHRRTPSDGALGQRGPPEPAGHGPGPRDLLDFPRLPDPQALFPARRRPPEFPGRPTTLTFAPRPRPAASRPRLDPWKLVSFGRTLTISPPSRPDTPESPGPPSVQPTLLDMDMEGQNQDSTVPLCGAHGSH

178 full-length kinases [10] = target: 178 full-length kinases (Homo sapiens, UniProt Q14680); conditions: MELK, Nluc N, probe 5 at 1 (unit uncertain)
178 full-length kinases [11] = target: 178 full-length kinases (Homo sapiens, UniProt P51955); conditions: NEK2, Nluc N, probe 5 at 1 (unit uncertain)
178 full-length kinases [12] = target: 178 full-length kinases (Homo sapiens, UniProt Q8WU08); conditions: STK32A (NP_001106195), Nluc orientation N, probe 5 at 1 (unit uncertain); replicate 2
178 full-length kinases [13] = target: 178 full-length kinases (Homo sapiens, UniProt Q9BVS4); conditions: RIOK2, Nluc N, probe 5 at 1 (unit uncertain)
Chain of 178 full-length kinases (Homo sapiens, UniProt Q9BVS4) (Q9BVS4 whole entry): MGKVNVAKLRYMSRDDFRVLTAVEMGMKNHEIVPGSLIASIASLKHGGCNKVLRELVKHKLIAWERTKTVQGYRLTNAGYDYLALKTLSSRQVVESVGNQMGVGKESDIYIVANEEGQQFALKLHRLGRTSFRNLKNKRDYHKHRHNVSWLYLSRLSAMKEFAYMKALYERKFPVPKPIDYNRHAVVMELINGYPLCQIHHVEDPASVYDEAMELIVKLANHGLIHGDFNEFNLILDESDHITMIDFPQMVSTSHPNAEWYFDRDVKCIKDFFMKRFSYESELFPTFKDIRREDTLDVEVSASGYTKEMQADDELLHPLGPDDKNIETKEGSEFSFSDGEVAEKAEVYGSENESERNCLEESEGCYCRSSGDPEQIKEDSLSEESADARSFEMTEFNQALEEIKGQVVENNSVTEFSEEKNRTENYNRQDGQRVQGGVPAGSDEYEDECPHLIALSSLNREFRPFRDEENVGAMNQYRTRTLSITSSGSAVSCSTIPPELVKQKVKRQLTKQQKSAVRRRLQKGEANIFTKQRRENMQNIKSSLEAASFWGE

178 full-length kinases [14] = target: 178 full-length kinases (Homo sapiens, UniProt P19784); conditions: CSNK2A2, Nluc C, probe 5 at 1 (unit uncertain)
Chain of 178 full-length kinases (Homo sapiens, UniProt P19784) (P19784 whole entry): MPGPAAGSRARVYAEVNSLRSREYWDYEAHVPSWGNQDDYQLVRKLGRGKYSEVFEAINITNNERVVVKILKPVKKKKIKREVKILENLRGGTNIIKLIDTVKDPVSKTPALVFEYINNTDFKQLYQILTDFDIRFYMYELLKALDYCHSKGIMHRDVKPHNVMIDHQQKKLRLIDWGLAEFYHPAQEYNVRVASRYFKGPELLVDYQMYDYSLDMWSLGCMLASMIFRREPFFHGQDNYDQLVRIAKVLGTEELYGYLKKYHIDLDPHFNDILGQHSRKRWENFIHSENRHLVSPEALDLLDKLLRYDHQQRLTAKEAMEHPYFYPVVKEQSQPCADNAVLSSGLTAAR

178 full-length kinases [15] = target: 178 full-length kinases (Homo sapiens, UniProt Q9Y463); conditions: DYRK1B, Nluc N, probe 5 at 1 (unit uncertain)
Chain of 178 full-length kinases (Homo sapiens, UniProt Q9Y463) (Q9Y463 whole entry): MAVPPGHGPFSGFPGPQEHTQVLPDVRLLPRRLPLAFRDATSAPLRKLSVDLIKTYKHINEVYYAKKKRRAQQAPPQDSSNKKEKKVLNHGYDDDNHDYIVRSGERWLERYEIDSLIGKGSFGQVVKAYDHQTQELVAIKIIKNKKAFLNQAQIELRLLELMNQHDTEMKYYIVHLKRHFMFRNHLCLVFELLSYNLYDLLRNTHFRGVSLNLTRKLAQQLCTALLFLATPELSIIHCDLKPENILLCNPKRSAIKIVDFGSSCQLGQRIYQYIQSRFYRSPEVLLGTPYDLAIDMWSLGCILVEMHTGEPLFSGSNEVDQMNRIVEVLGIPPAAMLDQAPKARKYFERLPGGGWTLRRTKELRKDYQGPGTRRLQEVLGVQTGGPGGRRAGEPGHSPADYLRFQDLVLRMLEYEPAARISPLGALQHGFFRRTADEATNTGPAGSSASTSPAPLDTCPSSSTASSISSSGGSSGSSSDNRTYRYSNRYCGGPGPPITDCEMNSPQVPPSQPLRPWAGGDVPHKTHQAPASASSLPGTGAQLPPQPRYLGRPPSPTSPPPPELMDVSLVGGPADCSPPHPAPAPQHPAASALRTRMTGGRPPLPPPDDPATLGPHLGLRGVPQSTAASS

178 full-length kinases [16] = target: 178 full-length kinases (Homo sapiens, UniProt Q02156); conditions: PRKCE, Nluc C, probe 5 at 1 (unit uncertain)
Chain of 178 full-length kinases (Homo sapiens, UniProt Q02156) (Q02156 whole entry): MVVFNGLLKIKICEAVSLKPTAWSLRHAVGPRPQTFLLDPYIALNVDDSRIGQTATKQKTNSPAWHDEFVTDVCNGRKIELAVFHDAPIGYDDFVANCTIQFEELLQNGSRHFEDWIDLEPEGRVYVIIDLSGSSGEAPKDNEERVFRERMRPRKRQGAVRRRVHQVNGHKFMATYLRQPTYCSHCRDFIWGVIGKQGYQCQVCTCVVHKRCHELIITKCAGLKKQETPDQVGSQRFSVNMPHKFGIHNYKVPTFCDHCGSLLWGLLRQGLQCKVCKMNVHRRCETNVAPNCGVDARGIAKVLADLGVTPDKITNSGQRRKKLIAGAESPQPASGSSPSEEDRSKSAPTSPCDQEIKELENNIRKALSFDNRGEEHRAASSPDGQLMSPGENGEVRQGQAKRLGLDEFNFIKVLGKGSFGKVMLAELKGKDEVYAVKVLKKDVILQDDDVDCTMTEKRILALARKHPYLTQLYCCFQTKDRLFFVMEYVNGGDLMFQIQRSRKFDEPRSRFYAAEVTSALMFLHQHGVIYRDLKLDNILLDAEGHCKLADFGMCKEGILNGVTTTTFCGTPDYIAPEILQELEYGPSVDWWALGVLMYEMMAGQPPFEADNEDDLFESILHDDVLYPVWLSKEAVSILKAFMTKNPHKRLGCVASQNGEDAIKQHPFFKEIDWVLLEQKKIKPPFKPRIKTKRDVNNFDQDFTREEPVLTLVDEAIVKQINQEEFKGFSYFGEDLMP

178 full-length kinases [17] = target: 178 full-length kinases (Homo sapiens, UniProt Q7KZI7); conditions: MARK2, Nluc N, probe 5 at 1 (unit uncertain)
178 full-length kinases [18] = target: 178 full-length kinases (Homo sapiens, UniProt Q15831); conditions: STK11 (NP_000446), Nluc orientation N, probe 5 at 1 (unit uncertain)
Chain of 178 full-length kinases (Homo sapiens, UniProt Q15831) (Q15831 whole entry): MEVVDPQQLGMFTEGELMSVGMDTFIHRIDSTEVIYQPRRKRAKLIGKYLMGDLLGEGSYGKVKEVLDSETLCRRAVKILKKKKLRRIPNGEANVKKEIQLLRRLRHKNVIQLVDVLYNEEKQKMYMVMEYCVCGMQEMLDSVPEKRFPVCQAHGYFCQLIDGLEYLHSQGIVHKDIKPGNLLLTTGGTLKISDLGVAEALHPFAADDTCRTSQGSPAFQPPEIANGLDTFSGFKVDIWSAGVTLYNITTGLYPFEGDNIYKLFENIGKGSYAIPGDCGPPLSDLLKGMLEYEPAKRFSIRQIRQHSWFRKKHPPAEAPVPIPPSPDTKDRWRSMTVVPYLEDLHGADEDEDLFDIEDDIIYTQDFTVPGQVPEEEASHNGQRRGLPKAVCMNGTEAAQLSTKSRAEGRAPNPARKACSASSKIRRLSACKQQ

C[C@@H](Oc1cc(-c2cnn(C3CCNCC3)c2)cnc1N)c1c(Cl)ccc(F)c1Cl [Crizotinib]
receptor occupancy (178 full-length kinases [1]; read-out: Occupancy, % Replicate 1): 14% | receptor occupancy (178 full-length kinases [1]; read-out: Occupancy, % Replicate 2): 31% | Occupancy, % Replicate 1 (178 full-length kinases [2]): No Binding | Occupancy, % Replicate 2 (178 full-length kinases [2]): No Binding | Occupancy, % Replicate 2 (178 full-length kinases [3]): No Binding | Occupancy, % Replicate 2 (178 full-length kinases [4]): No Binding | Occupancy, % Replicate 1 (178 full-length kinases [5]; replicate 1): No Binding | Occupancy, % Replicate 2 (178 full-length kinases [5]; replicate 2): No Binding | Occupancy, % Replicate 2 (178 full-length kinases [6]): No Binding | Occupancy, % Replicate 1 (178 full-length kinases [7]; replicate 1): No Binding | Occupancy, % Replicate 2 (178 full-length kinases [7]; replicate 2): No Binding | Occupancy, % Replicate 1 (178 full-length kinases [8]): No Binding | Occupancy, % Replicate 2 (178 full-length kinases [8]): No Binding | Occupancy, % Replicate 1 (178 full-length kinases [9]): No Binding | Occupancy, % Replicate 2 (178 full-length kinases [9]): No Binding | Occupancy, % Replicate 2 (178 full-length kinases [10]): No Binding | Occupancy, % Replicate 1 (178 full-length kinases [11]): No Binding | Occupancy, % Replicate 2 (178 full-length kinases [12]): No Binding | Occupancy, % Replicate 1 (178 full-length kinases [13]): No Binding | Occupancy, % Replicate 2 (178 full-length kinases [13]): No Binding | Occupancy, % Replicate 1 (178 full-length kinases [14]): No Binding | Occupancy, % Replicate 2 (178 full-length kinases [14]): No Binding | Occupancy, % Replicate 1 (178 full-length kinases [15]): No Binding | Occupancy, % Replicate 2 (178 full-length kinases [15]): No Binding | Occupancy, % Replicate 1 (178 full-length kinases [16]): No Binding | Occupancy, % Replicate 2 (178 full-length kinases [16]): No Binding | Occupancy, % Replicate 2 (178 full-length kinases [17]): No Binding | Occupancy, % Replicate 1 (178 full-length kinases [18]; replicate 1): No Binding | Occupancy, % Replicate 2 (178 full-length kinases [18]; replicate 2): No Binding
